# Laboratory results published in US8221762B2, “Naturally processed measles virus peptides from class II HLA molecules” (priority 2004, dated 2012).
# Experiments:
# [1] = test system: PBMC of subjects previously immunized with MMR-II vaccine; assay: IL-4 supernatant cytokine response (ELISA) to measles virus and synthetic measles peptides; format: cell-based, human; settings: for Median secretion value IL-4: stimulated minus control cells
# Method: (§1) To evaluate the immunogenicity of measles-derived peptides, 281 of these subjects (age 12 to 18 years) were studied.
# (§2) Cryopreserved PBMC were used to measure cytokine responses to measles-derived peptides. We thawed cryopreserved PBMC at a concentration of 1×10^7 cells/mL using standard protocol. The vials were rapidly thawed in a 37° C. water bath and then washed twice with 10× volume of complete RPMI 1640 media supplemented with 10% FCS at 700 rpm for 5 minutes. The final cell pellet was resuspended in complete RPMI media containing penicillin-streptomycin (100 U/mL) and supplemented with 5% normal human AB sera (Ervin Sci., Santa Ana, Calif.). For IFN-γ determination, thawed PBMC were cultured at a concentration of 2×10^5 in RPMI containing 5% normal human AB sera with or without measles peptides (10 μg/well) and MV (positive control) at a moi of 0.5 for 6 days. For IL-4 determination in cell culture supernatants, we cultured thawed PBMC at a concentration of 4×10^5 in RPMI media, supplemented with 5% normal human AB sera. Cells were cultured in the presence of 2 μg/mL of IL-4 receptor antibody (R&D Systems, Minneapolis, Minn.) (Ekerfelt, et al., J. Immunol. Methods 260:55-67, 2002) with or without synthetic measles-derived peptides (10 μg/well) and MV (positive control) at a moi of 0.1 for 6 days. Cell culture supernatants were collected in a volume of 150 μl/well for both IFN-γ and IL-4 and were frozen at […] until assayed. The culture supernatants were assayed using a standard ELISA protocol (OptiEtA Human IFN-γ and IL-4, PharMingen, San Diego, Calif.) at a dilution of 1:1 in PBS containing 10% FCS. ELISA plates (Immulon-4, DYNEX Technologies Inc, Chantilly, Va.) were coated with capture IFN-γ or IL-4 mAb and incubated overnight at 4° C. The antibody-coated plates were incubated with diluted supernatant samples for 2 hours at room temperature followed by incubation with biotinylated mouse anti-human IFN-γor IL-4 conjugated to avidin-horseradish peroxidase for 1 hour at room temperature. The absorbance of the product was read using a microplate reader (Molecular Devices, Sunnyvale, Calif.) at 450 nm. The IFN-γ and IL-4 concentration of test samples was calculated by reference to the standard curve. Unstimulated and MV-stimulated secretion measurements for IFN-γ were performed in triplicate, while all other secretion measurements for both IFN-γ and IL-4 were performed in duplicate. Individual-specific values were then summarized by taking means of the duplicate or triplicate values. Mean background levels of IFN-γ and IL-4 cytokine production in cultures not stimulated with measles peptides or MV was subtracted from the mean antigen-induced responses to produce “corrected” secretion values. Negative corrected values indicate that the unstimulated secretion levels were, on average, higher than the stimulated secretion levels.
# (§3) Two criteria were established to define positive responses for secreted IFN-γ and IL-4 cytokines using ELISA.
# [2] = test system: PBMC from subjects previously immunized with MMR-II vaccine; assay: T cell proliferation assay ([3H]-thymidine, 3 days, SI cut point 3.0), Example 1; format: cell-based, human; settings: 95 subjects
# Excerpt: Study participants included ninety-five healthy residents of Olmsted County, Minn., aged 11 to 18 years. […] Mononuclear leukocytes were isolated by Ficoll-Hypaque (Amersham) density gradient centrifugation.
# For descriptive analyses, we used medians and ranges for continuous variables and frequencies for categorical variables. We compared cpm for MV-stimulated, MV-P1-stimulated and MV-P2-stimulated cells with unstimulated cells using Wilcoxon signed rank tests. Associations between the continuously distributed stimulation indices for MV-P1, MV-P2 peptides, and MV were determined using Spearman rank correlation coefficients. Stimulation indices were subsequently dichotomized into positive or negative using a cut point of 3.0. We then compared MV positivity with MV-P1 and MV-P2 positivity using estimates of sensitivity.
# [3] = test system: PBMC of subjects previously immunized with MMR-II vaccine; assay: IFN-γ supernatant cytokine response (ELISA) to measles virus and synthetic measles peptides; format: cell-based, human; settings: for Median secretion value IFN-γ: stimulated minus control cells
# Method: as §1, §2, §3
# [4] = test system: PBMC of subjects previously immunized with MMR-II vaccine; assay: T cell proliferation assay ([3H]-thymidine, 4 days, SI>2 positive), Example 3; settings: 131 subjects (MV-P2 130, MV-F 43)
# Method: Briefly, study participants were enrolled as part of a larger stratified random sample study to assess associations between HLA genes and immune response to measles-mumps-rubella-II (MMR-II) vaccine in healthy, school-age children and young adults (ages 12 to 18 years). To evaluate the cellular responses to measles peptides, 131 subjects were used. In addition, a random subset of 43 individuals was tested for reactivity to a control measles fusion (F) peptide. All enrolled subjects had been previously immunized with two doses of MMR-II vaccine (Merck Research, West Point, Pa.) containing the attenuated Edmonston strain of MV. All but four of these participants were Caucasian and all subjects resided in a geographic area where no wild-type MV had circulated in the community during the subjects' lifetimes.
# In brief, peripheral blood mononuclear cells (PBMC) were separated from heparinized blood by Ficoll-Hypaque (Sigma, St. Louis, Mo.) density gradient centrifugation and washed in RPMI 1640 medium (Celox Laboratories, Inc., St. Paul, Minn.) supplemented with 2 mM L-glutamine, 100 μg/ml streptomycin, 100 U/ml penicillin and 8% fetal calf serum (Life Technologies, Gaithersburg, Md.). Measles virus, MV-P1, MV-P2, and MV-F specific T cell responses were measures by proliferation of PBMC (2×10^5) incubated in RPMI-1640 medium, supplemented with 5% autologous sera, with live attenuated MV (50 pfu/ml, positive control) or synthetic peptides (20 μg/ml) compared to unstimulated cell control wells. Phytohemagglutinin (PHA, 5 μg/ml) was used to assess cell vitality. Only assays in which PBMC responded to PHA were accepted. T lymphocyte proliferation was measured after 4 days by [^3H]-tritiated thymidine uptake. Cells were then harvested onto glass fiber filters, using a 96-well harvesting system (Skatron Instruments, Norway). The amount of incorporated radioactivity was determined by a liquid scintillation counter (Packard Instrument Company, Boston, Mass.). We used six replicates of counts per minute (cpm) values for unstimulated cells, and three replicates each for T cells stimulated with peptides and live measles vaccine. For each subject, median cpm were calculated for unstimulated cells, as well as for cells stimulated with MV-P1, MV-P2, MV-F and measles. Results were then expressed as antigen-specific stimulation indices (SI), defined as the ratio of the median cpm of antigen-stimulated wells to the median cpm of unstimulated control wells. […] SI>2 was arbitrarily selected prior to the study as an indication of the presence of reactive peptide specific memory T cells, and SI<2 as an indicator of the lack of memory T lymphocytes to measles-derived peptides (Pauksen, et al., Bone Marrow Transplant 20:317-323, 1997).
# Three outcomes were of primary interest: T cell proliferation (as measured by stimulation indices) induced separately by live MV, the MV-P1 peptide, and the MV-P2 peptide variant. Data were descriptively summarized using frequencies and percentages for all categorical variables, and medians and ranges for all continuous variables.
# [5] = 281 subjects, stimulated cells minus unstimulated cells
# [6] = peptides 20 μg/ml, MV 50 PFU/well
# [7] = peptides 20 μg/ml, MV 50 pfu/ml, 4 days
compound,measurement,setting,value
CC[C@H](C)[C@H](NC(=O)[C@H](CCC(=O)O)NC(=O)CNC(=O)CNC(=O)[C@H](CCC(=O)O)NC(=O)[C@H](C)NC(=O)[C@@H](NC(=O)[C@H](CCC(=O)O)NC(=O)[C@@H](NC(=O)[C@H](CC(=O)O)NC(=O)[C@H](CO)NC(=O)[C@H](C)N)C(C)C)[C@@H](C)O)C(=O)N[C@@H](Cc1c[nH]cn1)C(=O)N[C@@H](CCC(=O)O)C(=O)N[C@@H](CC(C)C)C(=O)N[C@@H](CC(C)C)C(=O)N[C@@H](CCCNC(=N)N)C(=O)N[C@@H](CC(C)C)C(=O)N[C@@H](CCC(N)=O)C(=O)O [MV-P1],IL-4 % Response (>10 pg/mL),"[1]; 281 subjects, peptides 10 μg/well, MV moi 0.1, 6 days",19.2%
same,IL-4 Median level,[1]; [5],-0.4 pg/mL
same,Median secretion value IL-4,[1]; All other HLA-DRB1 alleles,-1.3 pg/mL
same,Median secretion value IL-4,[1]; HLA-DRB1 allele *0101,1.1 pg/mL
same,Median secretion value IL-4,[1]; HLA-DRB1 allele *0102,5.6 pg/mL
same,Median secretion value IL-4,[1]; HLA-DRB1 allele *0103,-1.5 pg/mL
same,Median secretion value IL-4,[1]; HLA-DRB1 allele *0301,3.5 pg/mL
same,Median secretion value IL-4,[1]; HLA-DRB1 allele *0401,0.9 pg/mL
same,Median secretion value IL-4,[1]; HLA-DRB1 allele *0402,3.8 pg/mL
same,Median secretion value IL-4,[1]; HLA-DRB1 allele *0404,0.3 pg/mL
same,Median secretion value IL-4,[1]; HLA-DRB1 allele *0407,-2.1 pg/mL
same,Median secretion value IL-4,[1]; HLA-DRB1 allele *0701,-0.6 pg/mL
same,Median secretion value IL-4,[1]; HLA-DRB1 allele *0801,-1.4 pg/mL
same,Median secretion value IL-4,[1]; HLA-DRB1 allele *0901,-0.9 pg/mL
same,Median secretion value IL-4,[1]; HLA-DRB1 allele *1001,0.9 pg/mL
same,Median secretion value IL-4,[1]; HLA-DRB1 allele *1101,-3.7 pg/mL
same,Median secretion value IL-4,[1]; HLA-DRB1 allele *1103,-3.5 pg/mL
same,Median secretion value IL-4,[1]; HLA-DRB1 allele *1104,-1.3 pg/mL
same,Median secretion value IL-4,[1]; HLA-DRB1 allele *1201,-0.4 pg/mL
same,Median secretion value IL-4,[1]; HLA-DRB1 allele *1301,-3.0 pg/mL
same,Median secretion value IL-4,[1]; HLA-DRB1 allele *1302,1.2 pg/mL
same,Median secretion value IL-4,[1]; HLA-DRB1 allele *1303,-4.2 pg/mL
same,Median secretion value IL-4,[1]; HLA-DRB1 allele *1401,-0.8 pg/mL
same,Median secretion value IL-4,[1]; HLA-DRB1 allele *1501,-0.7 pg/mL
same,Median secretion value IL-4,[1]; HLA-DRB1 allele *03011,0.2 pg/mL
same,Median secretion value IL-4,[1]; Overall (281),-0.4 pg/mL
same,MV IL-4 responders who also responded to the peptide,[1]; among the 143 subjects with IL-4 production from MV-stimulated PBMC,23.1%
same,subjects with stimulation index greater than 3.0 (recognized),[2],17%
same,"stimulation index, median",[2]; [6],1.4
same,"stimulation index, range",[2]; [6],0.5-20.3
same,"median cpm value, lymphoproliferative assay","[2]; peptides 20 μg/ml, live attenuated MV 50 PFU/well, 3 days",472 cpm
same,IFN-γ % Response (>20 pg/mL),"[3]; 281 subjects, peptides 10 μg/well, MV moi 0.5, 6 days",55.9%
same,IFN-γ Median level,[3]; [5],28.0 pg/mL
same,Median secretion value IFN-γ,[3]; All other HLA-DRB1 alleles,26.7 pg/mL
same,Median secretion value IFN-γ,[3]; HLA-DRB1 allele *0101,51.2 pg/mL
same,Median secretion value IFN-γ,[3]; HLA-DRB1 allele *0102,17.6 pg/mL
same,Median secretion value IFN-γ,[3]; HLA-DRB1 allele *0103,116.2 pg/mL
same,Median secretion value IFN-γ,[3]; HLA-DRB1 allele *0301,40.8 pg/mL
same,Median secretion value IFN-γ,[3]; HLA-DRB1 allele *0401,33.5 pg/mL
same,Median secretion value IFN-γ,[3]; HLA-DRB1 allele *0402,0.1 pg/mL
same,Median secretion value IFN-γ,[3]; HLA-DRB1 allele *0404,52.2 pg/mL
same,Median secretion value IFN-γ,[3]; HLA-DRB1 allele *0407,8.6 pg/mL
same,Median secretion value IFN-γ,[3]; HLA-DRB1 allele *0701,18.6 pg/mL
same,Median secretion value IFN-γ,[3]; HLA-DRB1 allele *0801,27.2 pg/mL
same,Median secretion value IFN-γ,[3]; HLA-DRB1 allele *0901,19.9 pg/mL
same,Median secretion value IFN-γ,[3]; HLA-DRB1 allele *1001,46.9 pg/mL
same,Median secretion value IFN-γ,[3]; HLA-DRB1 allele *1101,48.5 pg/mL
same,Median secretion value IFN-γ,[3]; HLA-DRB1 allele *1103,65.3 pg/mL
same,Median secretion value IFN-γ,[3]; HLA-DRB1 allele *1104,15.4 pg/mL
same,Median secretion value IFN-γ,[3]; HLA-DRB1 allele *1201,14.6 pg/mL
same,Median secretion value IFN-γ,[3]; HLA-DRB1 allele *1301,27.4 pg/mL
same,Median secretion value IFN-γ,[3]; HLA-DRB1 allele *1302,14.2 pg/mL
same,Median secretion value IFN-γ,[3]; HLA-DRB1 allele *1303,63.9 pg/mL
same,Median secretion value IFN-γ,[3]; HLA-DRB1 allele *1401,22.5 pg/mL
same,Median secretion value IFN-γ,[3]; HLA-DRB1 allele *1501,32.8 pg/mL
same,Median secretion value IFN-γ,[3]; HLA-DRB1 allele *03011,18.7 pg/mL
same,Median secretion value IFN-γ,[3]; Overall (281),28.0 pg/mL
same,MV IFN-γ responders who also produced IFN-γ to the peptide,[3]; among the 185 subjects who responded to MV,59.5%
same,subjects with stimulation index greater than 2 (positive lymphoproliferative response),[4],41%
same,"stimulation index, median",[4]; [7],1.7
same,"stimulation index, range",[4]; [7],0.5-20.3
